Results on four compounds are retold here after patent US10091998B2, “Tetrazolinone compound and use thereof” (SUMITOMO CHEMICAL COMPANY, LIMITED, priority 2013, dated 2018).

A value given as a limit tells only on which side of the number the result lay.

In this experiment the test system is second-instar larvae of diamondback moth (Plutella xylostella). As to the kind of experiment: Test Example 11: diamondback moth mortality on treated cabbage. It is filed as in vivo. The settings on record: 120 h, 500 ppm spray on cabbage, 20 mL per cup, 5 days at 25° C. Here is the method:
As a test chemical solution used in the present test example, a water dilution (test chemical solution) was prepared so as to contain a predetermined concentration (500 ppm) of any one compound of the present compounds 1, 15, 17, and 55.
The test chemical solution was sprayed over cabbage in three-leaf stage sowed and grown in a polyethylene at a rate of 20 mL per cup. After drying the chemical solution, the stem and leaf portions were cut and disposed in a 50 mL cup. Five (5) heads of second-instar larvae of diamondback moth (Plutella xylostella) were released and then a lid was put on the cup. After storage at 25° C. for 5 days, the number of the dead insects was counted and mortality was calculated by the following equation. Mortality (%)=(number of dead insects/number of tested insects)×100
Usually mortality stands for the percentage killed. A high value points to fewer survivors. Turning to `Cc1cccc(-n2nnn(C)c2=O)c1OCc1ccccc1` [Present Compound 1, 1-(2-phenylmethoxy-3-methylphenyl)-4-methyl-1,4-dihydrotetrazol-5-one], the mortality at 500 ppm is at least 80%.

In turn, `Cc1ccc(-c2ccc(COc3c(C)cccc3-n3nnn(C)c3=O)c(C)c2)cc1` [Present Compound 15] registered a mortality at 500 ppm of at least 80%.

As for `Cc1cc(-c2ccccc2C)ccc1COc1c(C)cccc1-n1nnn(C)c1=O` [Present Compound 17], the mortality at 500 ppm is at least 80%.

Regarding `COc1ccccc1-c1csc(COc2c(C)cccc2-n2nnn(C)c2=O)n1` [Present Compound 55, 2-({[1-(4,5-dihydro-4-methyl-5-oxo-1H-tetrazol-1-yl)-3-methylphenyl-2-yl]oxy}methyl)-4-(2-methoxyphenyl)thiazole], the mortality at 500 ppm is at least 80%.
